From ChEMBL document CHEMBL1201862, “PubChem BioAssay data set” (2004) come the findings set out here.

Some test systems named below: OVCAR-8; CCRF-CEM; 786-0; RPMI-8226; TK-10; IGROV-1; NCI-H460; SR; SK-MEL-2; Hs-578T; HCT-116; BT-549; A498; MCF7; U-251; M14; MDA-MB-231; MDA-N; OVCAR-4.
What all share (test): NCI anticancer screen, dose series, 48 h

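Results reflect a 48-hour exposure of cells in 96-well plates to compound at five concentrations. GI50 is the concentration that inhibits growth by half.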 The source made the active and inactive calls. Cut-off read from the data, not from the text of the source: active = GI50 up to about 1.1 µM and inactive = higher.

For `CC[N+]1(C)CCC(O)(/C=C/c2ccc(Cl)c(Cl)c2)C(C(=O)/C=C/c2ccc(Cl)c(Cl)c2)C1` (configuration not stated), the GI50 was 2.55 µM (inactive) in the experiment with OVCAR-8; 1.38 µM (inactive) in the experiment with CCRF-CEM; 1.81 µM (inactive) in the experiment with 786-0; 2.17 µM (inactive) in the experiment on RPMI-8226; 2.43 µM (inactive) in the experiment on TK-10; 2.96 µM (inactive) with IGROV-1. Also, the GI50 with NCI-H460 is 2.99 µM (inactive); in the experiment on SR, 0.406 µM (active); in the experiment with SK-MEL-2 it was 3.86 µM (inactive); in the experiment with Hs-578T, 2.91 µM (inactive); in the experiment on HCT-116, 1.57 µM (inactive); in the experiment on BT-549, 2.96 µM (inactive). Also, the GI50 in the experiment with A498 was 2.52 µM (inactive); in the experiment on MCF7 it was 2.36 µM (inactive); with U-251 it was 1.77 µM (inactive).

Take `O=C(O)CCC(=O)c1ccc2c(c1)C(C(=O)O)CC2` (configuration not stated): the GI50 in the experiment with OVCAR-8 was 0.652 µM (active); with 786-0, > 100 µM (inactive); in the experiment on RPMI-8226 it was > 100 µM (inactive); in the experiment on TK-10, > 100 µM (inactive); in the experiment on IGROV-1, > 100 µM (inactive); in the experiment on NCI-H460 it was > 100 µM (inactive). Also, the GI50 in the experiment with SR, in the experiment with SK-MEL-2, with Hs-578T, in the experiment with M14, in the experiment with MDA-MB-231 and with MDA-N was > 100 µM (inactive) throughout. For the same molecule, the GI50 is 0.0935 µM (active) with HCT-116; > 100 µM (inactive) in the experiment on OVCAR-4; > 100 µM (inactive) in the experiment with A498; > 100 µM (inactive) in the experiment with MCF7; > 100 µM (inactive) with U-251.

For the molecule `CC(C)C1(O)C(c2ccccc2)=C(c2ccccc2)C(c2ccccc2)=C1c1ccccc1`, the GI50 with OVCAR-8 is 10.3 µM (inactive); with CCRF-CEM, 5.09 µM (inactive); in the experiment with 786-0, 5.78 µM (inactive); in the experiment on RPMI-8226, 2.28 µM (inactive); in the experiment with TK-10 it was 5.74 µM (inactive); in the experiment on IGROV-1 it was 6.15 µM (inactive). Further, the GI50 with NCI-H460 was 6.95 µM (inactive); in the experiment with SR, 2.96 µM (inactive); in the experiment with SK-MEL-2, 5.33 µM (inactive); with M14 it was 6.95 µM (inactive); with HCT-116, 3.61 µM (inactive); in the experiment with OVCAR-4, 5.73 µM (inactive). The GI50 with A498 was 15.2 µM (inactive); in the experiment with U-251, 5.11 µM (inactive).

As for `Cc1ccccc1N1C(N)=C(C#N)C(C#N)(C#N)C1c1ccccc1` (configuration not stated), the GI50 was 20.9 µM (inactive) in the experiment with OVCAR-8; 14.7 µM (inactive) with CCRF-CEM; 17.3 µM (inactive) in the experiment with 786-0; 19.2 µM (inactive) with RPMI-8226; 14.6 µM (inactive) with TK-10; 17.9 µM (inactive) in the experiment with IGROV-1. Besides, the GI50 is 23.9 µM (inactive) in the experiment on SR; 25.9 µM (inactive) with SK-MEL-2; 20.1 µM (inactive) in the experiment on Hs-578T; 23.4 µM (inactive) in the experiment with M14; 13.3 µM (inactive) in the experiment on MDA-MB-231; 18 µM (inactive) in the experiment on HCT-116. In addition, the GI50 in the experiment on BT-549 is 13.6 µM (inactive); in the experiment with OVCAR-4 it was 19 µM (inactive); in the experiment on A498 it was 16.6 µM (inactive); in the experiment on MCF7, 23.6 µM (inactive); in the experiment with U-251, 16.7 µM (inactive).

Consider `O=C1CSC2=NC3=C(CSC/C3=C\c3ccc(Cl)cc3)C(c3ccc(Cl)cc3)N12` (configuration not stated), for which the GI50 was 8.43 µM (inactive) in the experiment on OVCAR-8; 14.6 µM (inactive) with CCRF-CEM; > 10 µM (inactive) in the experiment on 786-0; 17.5 µM (inactive) in the experiment with RPMI-8226; 32 µM (inactive) with TK-10; 41.9 µM (inactive) with IGROV-1. The GI50 was 28.5 µM (inactive) in the experiment on NCI-H460; 14.9 µM (inactive) with SR; 25.3 µM (inactive) in the experiment on SK-MEL-2; 19.1 µM (inactive) with M14; 21.8 µM (inactive) in the experiment with MDA-MB-231; > 10 µM (inactive) in the experiment on MDA-N. The GI50 was 5.86 µM (inactive) with HCT-116, 4.46 µM (inactive) in the experiment with OVCAR-4, 19.3 µM (inactive) with MCF7 and > 10 µM (inactive) in the experiment with U-251.

Consider `CCC(C)C1=C(OC(C)=O)[N+]2([O-])Oc3ccc(-c4c(OC(C)=O)c(OC(C)=O)c(-c5ccc(OC(C)=O)cc5)c(OC(C)=O)c4OC(C)=O)cc3OC2(C(C)CC)C(=O)N1OC(C)=O` (configuration not stated), for which the GI50 is 22.4 µM (inactive) in the experiment on OVCAR-8; 9.57 µM (inactive) in the experiment with CCRF-CEM; 10.5 µM (inactive) in the experiment on 786-0; 10.3 µM (inactive) in the experiment with RPMI-8226; 37.7 µM (inactive) in the experiment with TK-10; 11.5 µM (inactive) in the experiment on IGROV-1. In addition, the GI50 with NCI-H460 was 18.9 µM (inactive); in the experiment on SR it was 13.7 µM (inactive); in the experiment on SK-MEL-2, 14.9 µM (inactive); in the experiment on M14, 20.1 µM (inactive); in the experiment with MDA-MB-231 it was 40.3 µM (inactive); in the experiment with MDA-N it was 12.3 µM (inactive). The GI50 in the experiment with HCT-116 was 9.62 µM (inactive); in the experiment with OVCAR-4 it was 16.5 µM (inactive); in the experiment on A498, > 50 µM (inactive); in the experiment on MCF7, 19.6 µM (inactive); in the experiment on U-251, 23.8 µM (inactive).

Take `CC(O)CN1C(=O)NC(Cc2ccccc2)C1=O` (configuration not stated): the GI50 with OVCAR-8, in the experiment on 786-0, in the experiment with TK-10, with NCI-H460, in the experiment with SR and with SK-MEL-2 was > 100 µM (inactive) throughout. The GI50 with M14 and in the experiment with U-251 was > 100 µM (inactive) in each case.

Regarding `FC(F)=C(c1ccc(-c2ccc(Cl)cc2)cc1)C(F)(F)F`, the GI50 in the experiment with OVCAR-8 was 24.3 µM (inactive); in the experiment on CCRF-CEM, 26.8 µM (inactive); with 786-0, 19.8 µM (inactive); in the experiment on RPMI-8226, 23.3 µM (inactive); in the experiment with TK-10 it was 15.8 µM (inactive); with IGROV-1, 17 µM (inactive). In addition, the GI50 in the experiment with NCI-H460 is 17.7 µM (inactive); with SR, 23.3 µM (inactive); with SK-MEL-2, 23.7 µM (inactive); in the experiment on Hs-578T, 26.1 µM (inactive); in the experiment on M14, 19.7 µM (inactive); in the experiment with MDA-MB-231, 17.7 µM (inactive). Moreover, the GI50 is 17.5 µM (inactive) with HCT-116; 18.2 µM (inactive) with BT-549; 18.5 µM (inactive) in the experiment with OVCAR-4; 16.8 µM (inactive) with A498; 16.7 µM (inactive) with U-251.

Turning to `COc1ccc(C(=O)Sc2c(-c3ccccc3)c(=O)n(-c3ccccc3)c(=S)n2-c2ccccc2)cc1`, the GI50 with OVCAR-8 was 21.3 µM (inactive); in the experiment with CCRF-CEM, 22.3 µM (inactive); in the experiment on 786-0 it was 33.7 µM (inactive); in the experiment on TK-10 it was > 100 µM (inactive); with IGROV-1 it was 10.1 µM (inactive); in the experiment on NCI-H460, > 100 µM (inactive). Besides, the GI50 in the experiment on SR was 25.4 µM (inactive); in the experiment with Hs-578T, > 100 µM (inactive); in the experiment with M14, 68.7 µM (inactive); in the experiment on MDA-MB-231, > 100 µM (inactive); in the experiment on MDA-N, > 100 µM (inactive); in the experiment on HCT-116, 29.7 µM (inactive). Besides, the GI50 in the experiment with OVCAR-4 was 44.4 µM (inactive); in the experiment with A498, 15.4 µM (inactive); in the experiment with MCF7, > 100 µM (inactive); with U-251, 47 µM (inactive).

As for `O=S1(=O)OCCOS(=O)(=O)C1(F)Cc1ccccc1`, the GI50 with OVCAR-8, in the experiment with CCRF-CEM, in the experiment with 786-0, with RPMI-8226, with TK-10 and with IGROV-1 was > 100 µM (inactive) in each case. Further, the GI50 with NCI-H460, with SR, with SK-MEL-2, in the experiment on Hs-578T, in the experiment on M14 and in the experiment with MDA-MB-231 was > 100 µM (inactive) each time. For the same molecule, the GI50 in the experiment on MDA-N, in the experiment on HCT-116, in the experiment on OVCAR-4, with A498 and in the experiment with U-251 was > 100 µM (inactive) throughout.

Take `O=C(Nc1ccccc1C(=O)NCc1ccccc1)/C(=C/c1ccccc1O)NC(=O)c1ccccc1`: the GI50 with OVCAR-8 is 95.1 µM (inactive); in the experiment on CCRF-CEM it was > 100 µM (inactive); in the experiment on 786-0 it was 66.4 µM (inactive); in the experiment with RPMI-8226 it was > 100 µM (inactive); in the experiment on TK-10, 74.6 µM (inactive); in the experiment with IGROV-1 it was 73.1 µM (inactive). Further, the GI50 with NCI-H460 was > 100 µM (inactive); in the experiment on SR, > 100 µM (inactive); in the experiment on SK-MEL-2 it was > 100 µM (inactive); in the experiment with Hs-578T it was 69 µM (inactive); in the experiment with M14, > 100 µM (inactive); with MDA-MB-231, 27.1 µM (inactive). Moreover, the GI50 is > 100 µM (inactive) with HCT-116, > 100 µM (inactive) in the experiment with A498, 5.32 µM (inactive) in the experiment on MCF7 and 52.5 µM (inactive) in the experiment with U-251.

Turning to `CC1=C2C(=O)c3ccccc3C(=O)[C@H]2C[C@@H](N2CCCC2=O)O1`, the GI50 in the experiment on OVCAR-8 was 50.9 µM (inactive); with CCRF-CEM it was 32.4 µM (inactive); in the experiment with 786-0, 25.2 µM (inactive); in the experiment with RPMI-8226, 21.7 µM (inactive); in the experiment on TK-10, 70.3 µM (inactive); with IGROV-1, 80.9 µM (inactive). For the same molecule, the GI50 in the experiment with NCI-H460 was 61.1 µM (inactive); in the experiment on SR it was 32.2 µM (inactive); in the experiment with SK-MEL-2 it was > 100 µM (inactive); in the experiment on Hs-578T, 94.8 µM (inactive); in the experiment on M14 it was 14.7 µM (inactive); with MDA-MB-231, 39.6 µM (inactive). The GI50 in the experiment with MDA-N was 16.4 µM (inactive); with OVCAR-4, 20.2 µM (inactive); in the experiment on A498, 54.8 µM (inactive); in the experiment on MCF7 it was 12.9 µM (inactive); in the experiment with U-251, 28 µM (inactive).
